The results in this text go back to BindingDB's records for doi:10.1021/np400148e (University of Eastern Piedmont, 2013).

Usually IC50 stands for the concentration that gives 50% inhibition. A low value points to higher potency.

The assay addresses Integrase (Human immunodeficiency virus 1, UniProt Q76353). Put plainly: Inhibition of HIV-1 integrase.

Each structure is given as a SMILES string.

With `COc1cc(C=CC(=O)CC(=O)C=Cc2ccc(O)c(OC)c2)ccc1O`, the IC50 was 40 µM.
